Results taken from article PMC10700596 (Nature Communications, 2023).
“And” between values parts separate entries of the source, which are not always exact repeats. Equal entries are not always repeated.

How the values were obtained:
320 GPCRs [1] = target: 320 GPCRs (Homo sapiens, UniProt Q8TDU9); assay type: cell-based
320 GPCRs [2] = target: 320 GPCRs (Homo sapiens, UniProt P49238); assay type: cell-based
320 GPCRs [3] = target: 320 GPCRs (Homo sapiens, UniProt Q9BZJ7); assay type: cell-based
320 GPCRs [4] = target: 320 GPCRs (Homo sapiens, UniProt O14804); assay type: cell-based
320 GPCRs [5] = target: 320 GPCRs (Homo sapiens, UniProt Q96P68); assay type: cell-based
320 GPCRs [6] = target: 320 GPCRs (Homo sapiens, UniProt P49019); assay type: cell-based
320 GPCRs [7] = target: 320 GPCRs (Homo sapiens, UniProt P47901); assay type: cell-based
320 GPCRs [8] = target: 320 GPCRs (Homo sapiens, UniProt Q13304); assay type: cell-based
320 GPCRs [9] = target: 320 GPCRs (Homo sapiens, UniProt Q9BZJ8); assay type: cell-based
320 GPCRs [10] = target: 320 GPCRs (Homo sapiens, UniProt Q96RI0); assay type: cell-based
320 GPCRs [11] = target: 320 GPCRs (Homo sapiens, UniProt P43119); assay type: cell-based
320 GPCRs [12] = target: 320 GPCRs (Homo sapiens, UniProt Q8TDS4); assay type: cell-based
320 GPCRs [13] = target: 320 GPCRs (Homo sapiens, UniProt Q86SQ4); assay type: cell-based
320 GPCRs [14] = target: 320 GPCRs (Homo sapiens, UniProt P25021); assay type: cell-based
320 GPCRs [15] = target: 320 GPCRs (Homo sapiens, UniProt P47871); assay type: cell-based
320 GPCRs [16] = target: 320 GPCRs (Homo sapiens, UniProt P51684); assay type: cell-based
320 GPCRs [17] = target: 320 GPCRs (Homo sapiens, UniProt P41968); assay type: cell-based
320 GPCRs [18] = target: 320 GPCRs (Homo sapiens, UniProt Q96RI9); assay type: cell-based
320 GPCRs [19] = target: 320 GPCRs (Homo sapiens, UniProt P48039); assay type: cell-based
320 GPCRs [20] = target: 320 GPCRs (Homo sapiens, UniProt P35410); assay type: cell-based
320 GPCRs [21] = target: 320 GPCRs (Homo sapiens, UniProt P08173); assay type: cell-based
320 GPCRs [22] = target: 320 GPCRs (Homo sapiens, UniProt Q8NFN8); assay type: cell-based
320 GPCRs [23] = target: 320 GPCRs (Homo sapiens, UniProt P25100); assay type: cell-based
320 GPCRs [24] = target: 320 GPCRs (Homo sapiens, UniProt Q15760); assay type: cell-based
320 GPCRs [25] = target: 320 GPCRs (Homo sapiens, UniProt Q9H1C0); assay type: cell-based
320 GPCRs [26] = target: 320 GPCRs (Homo sapiens, UniProt O00155); assay type: cell-based
320 GPCRs [27] = target: 320 GPCRs (Homo sapiens, UniProt O00222); assay type: cell-based
320 GPCRs [28] = target: 320 GPCRs (Homo sapiens, UniProt Q9NS67); assay type: cell-based
320 GPCRs [29] = target: 320 GPCRs (Homo sapiens, UniProt Q14416); assay type: cell-based
CDK3 = CDK3 (Homo sapiens, UniProt Q00526); experiment: biochemical; assay type: binding; details: 10000 nM; read-out: Percent Control
[30] = target: T1, JAK3(JH1domain-catalytic) (Homo sapiens, UniProt P52333); experiment: KINOMEscan; assay type: binding
T1 construct: JAK3(JH1domain-catalytic); purchased Eurofins DiscoverX KINOMEscan (scanEDGE, 97 kinases)

CSNK1D = CSNK1D (Homo sapiens, UniProt P48730); experiment: biochemical; assay type: binding; details: 10000 nM; read-out: Percent Control

Sequence of 320 GPCRs (Homo sapiens, UniProt O14804) (O14804 whole entry): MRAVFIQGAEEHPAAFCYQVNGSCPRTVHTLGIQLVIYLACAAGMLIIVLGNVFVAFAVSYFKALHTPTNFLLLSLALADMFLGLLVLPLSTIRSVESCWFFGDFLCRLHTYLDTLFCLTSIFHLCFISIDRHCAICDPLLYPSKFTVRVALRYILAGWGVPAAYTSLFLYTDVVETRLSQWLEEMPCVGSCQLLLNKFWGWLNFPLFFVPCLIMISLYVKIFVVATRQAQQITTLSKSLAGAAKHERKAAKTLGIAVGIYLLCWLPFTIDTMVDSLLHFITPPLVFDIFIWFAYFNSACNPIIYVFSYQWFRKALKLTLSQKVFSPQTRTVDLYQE
Sequence of 320 GPCRs (Homo sapiens, UniProt Q96RI9) (Q96RI9 whole entry): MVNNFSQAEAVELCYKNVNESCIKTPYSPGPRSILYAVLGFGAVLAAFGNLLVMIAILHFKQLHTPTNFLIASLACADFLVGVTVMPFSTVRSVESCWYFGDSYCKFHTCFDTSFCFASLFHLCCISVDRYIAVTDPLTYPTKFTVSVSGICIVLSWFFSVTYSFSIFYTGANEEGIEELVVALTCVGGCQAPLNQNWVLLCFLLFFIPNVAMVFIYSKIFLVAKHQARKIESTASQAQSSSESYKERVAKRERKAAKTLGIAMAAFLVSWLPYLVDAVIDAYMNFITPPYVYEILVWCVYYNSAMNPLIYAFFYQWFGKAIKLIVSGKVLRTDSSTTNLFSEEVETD
Sequence of 320 GPCRs (Homo sapiens, UniProt O00222) (O00222 34-908): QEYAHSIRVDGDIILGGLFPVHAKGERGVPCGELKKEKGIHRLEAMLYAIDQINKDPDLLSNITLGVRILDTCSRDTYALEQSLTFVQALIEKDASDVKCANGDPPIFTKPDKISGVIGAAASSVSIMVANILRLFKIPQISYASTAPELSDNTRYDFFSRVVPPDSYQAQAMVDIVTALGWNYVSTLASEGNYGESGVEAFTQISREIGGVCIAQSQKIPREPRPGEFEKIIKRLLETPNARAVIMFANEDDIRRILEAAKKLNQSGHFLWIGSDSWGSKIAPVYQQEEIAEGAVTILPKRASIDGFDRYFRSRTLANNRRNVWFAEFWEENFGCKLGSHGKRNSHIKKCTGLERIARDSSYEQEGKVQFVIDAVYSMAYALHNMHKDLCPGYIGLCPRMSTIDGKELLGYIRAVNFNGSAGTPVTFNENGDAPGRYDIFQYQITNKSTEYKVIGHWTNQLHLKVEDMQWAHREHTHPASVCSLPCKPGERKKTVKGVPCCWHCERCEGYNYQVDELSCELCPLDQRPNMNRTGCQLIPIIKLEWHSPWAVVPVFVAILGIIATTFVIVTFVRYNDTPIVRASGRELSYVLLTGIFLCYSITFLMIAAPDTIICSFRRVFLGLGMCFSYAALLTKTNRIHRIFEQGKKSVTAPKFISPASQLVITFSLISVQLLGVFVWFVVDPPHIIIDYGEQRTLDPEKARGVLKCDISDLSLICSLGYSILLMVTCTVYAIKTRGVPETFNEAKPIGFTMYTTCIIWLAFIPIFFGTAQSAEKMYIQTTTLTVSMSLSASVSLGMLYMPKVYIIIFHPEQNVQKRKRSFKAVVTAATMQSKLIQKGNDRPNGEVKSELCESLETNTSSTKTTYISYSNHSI
Sequence of 320 GPCRs (Homo sapiens, UniProt Q8NFN8) (Q8NFN8 whole entry): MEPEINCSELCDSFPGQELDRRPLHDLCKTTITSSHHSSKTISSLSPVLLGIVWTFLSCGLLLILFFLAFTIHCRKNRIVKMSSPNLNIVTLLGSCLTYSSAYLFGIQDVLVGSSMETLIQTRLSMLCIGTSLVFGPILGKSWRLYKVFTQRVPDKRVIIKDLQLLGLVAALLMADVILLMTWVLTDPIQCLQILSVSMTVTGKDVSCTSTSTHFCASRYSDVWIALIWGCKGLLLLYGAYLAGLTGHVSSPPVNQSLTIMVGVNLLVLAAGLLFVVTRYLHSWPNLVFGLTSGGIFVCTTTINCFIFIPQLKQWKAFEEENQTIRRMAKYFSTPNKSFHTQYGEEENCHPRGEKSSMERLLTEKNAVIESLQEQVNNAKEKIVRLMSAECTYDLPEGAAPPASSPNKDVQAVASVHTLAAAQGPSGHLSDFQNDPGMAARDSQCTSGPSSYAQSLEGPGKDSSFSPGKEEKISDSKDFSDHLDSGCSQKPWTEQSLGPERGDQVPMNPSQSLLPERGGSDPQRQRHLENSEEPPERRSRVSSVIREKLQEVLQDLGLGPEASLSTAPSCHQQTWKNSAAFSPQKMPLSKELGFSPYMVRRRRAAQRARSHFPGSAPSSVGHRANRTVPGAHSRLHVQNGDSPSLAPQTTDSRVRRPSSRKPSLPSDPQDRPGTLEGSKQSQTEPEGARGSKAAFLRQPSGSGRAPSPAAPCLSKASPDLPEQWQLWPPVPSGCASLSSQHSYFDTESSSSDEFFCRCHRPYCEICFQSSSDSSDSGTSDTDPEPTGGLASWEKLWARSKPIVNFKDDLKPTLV
Sequence of 320 GPCRs (Homo sapiens, UniProt Q15760) (Q15760 whole entry): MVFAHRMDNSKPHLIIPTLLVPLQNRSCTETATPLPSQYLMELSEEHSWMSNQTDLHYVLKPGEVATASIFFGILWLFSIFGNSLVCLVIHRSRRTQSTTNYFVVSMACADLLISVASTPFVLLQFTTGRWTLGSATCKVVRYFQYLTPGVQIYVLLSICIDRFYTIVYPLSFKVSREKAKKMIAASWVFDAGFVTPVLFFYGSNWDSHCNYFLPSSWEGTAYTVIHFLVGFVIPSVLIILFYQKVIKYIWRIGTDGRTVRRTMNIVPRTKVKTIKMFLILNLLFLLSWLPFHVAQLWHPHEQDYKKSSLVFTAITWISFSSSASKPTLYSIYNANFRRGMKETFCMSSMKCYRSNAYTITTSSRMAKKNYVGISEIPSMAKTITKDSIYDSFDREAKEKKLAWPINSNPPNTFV
Sequence of 320 GPCRs (Homo sapiens, UniProt Q9BZJ7) (Q9BZJ7 whole entry): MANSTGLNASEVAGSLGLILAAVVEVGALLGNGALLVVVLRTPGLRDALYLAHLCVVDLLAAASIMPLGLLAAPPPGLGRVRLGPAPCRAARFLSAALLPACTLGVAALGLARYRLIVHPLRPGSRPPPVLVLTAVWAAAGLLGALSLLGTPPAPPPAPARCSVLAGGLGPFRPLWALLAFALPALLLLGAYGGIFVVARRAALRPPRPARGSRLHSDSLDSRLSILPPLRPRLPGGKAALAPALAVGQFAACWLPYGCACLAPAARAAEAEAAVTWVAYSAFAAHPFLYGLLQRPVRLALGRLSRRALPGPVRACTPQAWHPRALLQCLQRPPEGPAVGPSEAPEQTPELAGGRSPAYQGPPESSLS
Sequence of 320 GPCRs (Homo sapiens, UniProt P49019) (P49019 whole entry): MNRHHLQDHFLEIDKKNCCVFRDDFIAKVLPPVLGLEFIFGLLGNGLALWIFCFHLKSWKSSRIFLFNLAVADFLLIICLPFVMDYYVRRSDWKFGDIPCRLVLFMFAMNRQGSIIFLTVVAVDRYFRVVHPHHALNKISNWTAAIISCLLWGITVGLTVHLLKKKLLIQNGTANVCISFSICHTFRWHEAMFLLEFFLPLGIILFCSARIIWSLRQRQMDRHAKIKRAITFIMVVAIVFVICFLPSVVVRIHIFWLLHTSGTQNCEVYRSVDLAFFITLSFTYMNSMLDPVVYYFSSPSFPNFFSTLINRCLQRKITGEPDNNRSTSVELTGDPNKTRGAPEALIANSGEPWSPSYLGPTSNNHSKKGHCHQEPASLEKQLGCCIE
Sequence of 320 GPCRs (Homo sapiens, UniProt P35410) (P35410 whole entry): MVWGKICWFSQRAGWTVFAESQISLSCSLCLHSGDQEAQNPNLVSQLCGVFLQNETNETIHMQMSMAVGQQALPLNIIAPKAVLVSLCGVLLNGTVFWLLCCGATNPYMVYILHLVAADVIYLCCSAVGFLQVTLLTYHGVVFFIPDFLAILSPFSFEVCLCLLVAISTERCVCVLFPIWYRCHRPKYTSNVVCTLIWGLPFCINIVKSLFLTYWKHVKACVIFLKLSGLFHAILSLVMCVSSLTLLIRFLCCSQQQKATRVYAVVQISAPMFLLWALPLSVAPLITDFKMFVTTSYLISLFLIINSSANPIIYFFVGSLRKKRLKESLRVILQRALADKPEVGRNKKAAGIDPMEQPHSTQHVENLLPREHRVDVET
Sequence of 320 GPCRs (Homo sapiens, UniProt Q8TDS4) (Q8TDS4 whole entry): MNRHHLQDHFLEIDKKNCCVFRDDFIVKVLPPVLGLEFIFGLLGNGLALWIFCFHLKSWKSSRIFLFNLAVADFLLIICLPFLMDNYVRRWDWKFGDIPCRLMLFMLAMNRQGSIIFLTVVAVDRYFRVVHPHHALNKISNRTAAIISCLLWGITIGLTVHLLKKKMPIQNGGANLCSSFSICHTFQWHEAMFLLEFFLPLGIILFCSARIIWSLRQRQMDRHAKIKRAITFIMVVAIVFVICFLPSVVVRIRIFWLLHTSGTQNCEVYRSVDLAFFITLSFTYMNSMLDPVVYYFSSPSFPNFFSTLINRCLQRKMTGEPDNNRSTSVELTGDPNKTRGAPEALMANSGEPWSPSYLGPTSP
Sequence of 320 GPCRs (Homo sapiens, UniProt P08173) (P08173 whole entry): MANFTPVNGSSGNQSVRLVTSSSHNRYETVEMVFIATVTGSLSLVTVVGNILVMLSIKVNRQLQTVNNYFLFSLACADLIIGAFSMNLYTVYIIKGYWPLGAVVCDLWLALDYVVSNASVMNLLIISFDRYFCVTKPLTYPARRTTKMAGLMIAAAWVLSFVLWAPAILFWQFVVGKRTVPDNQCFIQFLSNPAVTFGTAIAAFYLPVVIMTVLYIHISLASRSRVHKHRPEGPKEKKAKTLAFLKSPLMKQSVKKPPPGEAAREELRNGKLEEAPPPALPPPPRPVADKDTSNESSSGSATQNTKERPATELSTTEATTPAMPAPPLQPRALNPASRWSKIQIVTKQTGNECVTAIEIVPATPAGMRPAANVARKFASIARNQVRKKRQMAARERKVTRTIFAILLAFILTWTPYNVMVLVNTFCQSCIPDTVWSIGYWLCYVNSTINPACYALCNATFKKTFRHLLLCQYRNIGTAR

SMILES: O=C(O)C1CCC2(CC1)CC(Nc1ncnc3[nH]c4c(F)cccc4c13)C2 (stereo not drawn) [Compound 74, OC(=O)C1CCC2(CC(C2)NC=3N=CN=C4NC=5C(F)=CC=CC5C34)CC1]
- RLU (Fold over Basal) (320 GPCRs [1]): 1.1 Fold over Basal and 0.6 Fold over Basal and 0.7 Fold over Basal
- RLU (Fold over Basal) (320 GPCRs [2]): 1 Fold over Basal
- RLU (Fold over Basal) (320 GPCRs [3]): 0.6 Fold over Basal and 0.5 Fold over Basal and 0.8 Fold over Basal
- RLU (Fold over Basal) (320 GPCRs [4]): 1.3 Fold over Basal and 0.9 Fold over Basal and 1.4 Fold over Basal and 0.8 Fold over Basal
- RLU (Fold over Basal) (320 GPCRs [5]): 0.3 Fold over Basal
- RLU (Fold over Basal) (320 GPCRs [6]): 0.9 Fold over Basal and 0.7 Fold over Basal and 1 Fold over Basal
- RLU (Fold over Basal) (320 GPCRs [7]): 0.9 Fold over Basal and 1 Fold over Basal and 0.5 Fold over Basal
- RLU (Fold over Basal) (320 GPCRs [8]): 0.4 Fold over Basal and 0.6 Fold over Basal and 0.5 Fold over Basal
- RLU (Fold over Basal) (320 GPCRs [9]): 0.8 Fold over Basal and 1.4 Fold over Basal and 1 Fold over Basal and 1.1 Fold over Basal
- RLU (Fold over Basal) (320 GPCRs [10]): 1 Fold over Basal and 0.7 Fold over Basal and 1.2 Fold over Basal
- RLU (Fold over Basal) (320 GPCRs [11]): 0.9 Fold over Basal and 0.6 Fold over Basal and 0.7 Fold over Basal and 1 Fold over Basal
- RLU (Fold over Basal) (320 GPCRs [12]): 1.1 Fold over Basal and 1.6 Fold over Basal and 1.9 Fold over Basal and 1.5 Fold over Basal
- RLU (Fold over Basal) (320 GPCRs [13]): 1 Fold over Basal and 1.1 Fold over Basal and 0.9 Fold over Basal and 1.5 Fold over Basal
- RLU (Fold over Basal) (320 GPCRs [14]): 1 Fold over Basal and 1.4 Fold over Basal
- RLU (Fold over Basal) (320 GPCRs [15]): 1 Fold over Basal and 0.5 Fold over Basal and 0.8 Fold over Basal
- RLU (Fold over Basal) (320 GPCRs [16]): 0.7 Fold over Basal and 1 Fold over Basal and 0.9 Fold over Basal
- RLU (Fold over Basal) (320 GPCRs [17]): 0.5 Fold over Basal and 1 Fold over Basal and 0.7 Fold over Basal and 0.8 Fold over Basal
- RLU (Fold over Basal) (320 GPCRs [18]): 0.9 Fold over Basal and 1.1 Fold over Basal and 1.2 Fold over Basal
- RLU (Fold over Basal) (320 GPCRs [19]): 0.9 Fold over Basal and 0.8 Fold over Basal
- RLU (Fold over Basal) (320 GPCRs [20]): 0.7 Fold over Basal and 1 Fold over Basal and 0.9 Fold over Basal and 0.6 Fold over Basal
- RLU (Fold over Basal) (320 GPCRs [21]): 1.1 Fold over Basal and 1 Fold over Basal and 1.4 Fold over Basal and 1.2 Fold over Basal
- RLU (Fold over Basal) (320 GPCRs [22]): 1.2 Fold over Basal and 1 Fold over Basal and 0.6 Fold over Basal
- RLU (Fold over Basal) (320 GPCRs [23]): 1.5 Fold over Basal and 1.7 Fold over Basal and 1.6 Fold over Basal and 0.9 Fold over Basal
- RLU (Fold over Basal) (320 GPCRs [24]): 1 Fold over Basal and 1.3 Fold over Basal and 0.9 Fold over Basal and 1.8 Fold over Basal
- RLU (Fold over Basal) (320 GPCRs [25]): 0.9 Fold over Basal and 0.8 Fold over Basal and 1.3 Fold over Basal
- RLU (Fold over Basal) (320 GPCRs [26]): 1.1 Fold over Basal and 1 Fold over Basal and 0.7 Fold over Basal and 0.6 Fold over Basal
- RLU (Fold over Basal) (320 GPCRs [27]): 1.1 Fold over Basal and 0.8 Fold over Basal and 1.5 Fold over Basal
- RLU (Fold over Basal) (320 GPCRs [28]): 0.4 Fold over Basal and 0.7 Fold over Basal and 0.8 Fold over Basal and 0.6 Fold over Basal
- RLU (Fold over Basal) (320 GPCRs [29]): 1 Fold over Basal and 1.1 Fold over Basal and 0.9 Fold over Basal
- remaining activity at 10 µM (CDK3): 100%
- remaining binding at 10 µM ([30]; 10000 nM, read-out: Percent Control): 0.25%
- Signal (qPCR) ([30]; JAK3, [Compound] 0.0001 nM): 1.3e-6 and 8.87e-7
- Signal (qPCR) ([30]; JAK3, [Compound] 0.001 nM): 1.24e-6 and 1.2e-6
- Signal (qPCR) ([30]; JAK3, [Compound] 0.01 nM): 1.37e-6 and 1.42e-6
- Signal (qPCR) ([30]; JAK3, [Compound] 0.169 nM): 1.07e-6 and 1.21e-6
- Signal (qPCR) ([30]; JAK3, [Compound] 0.508 nM): 1.06e-6 and 1.26e-6
- Signal (qPCR) ([30]; JAK3, [Compound] 1.52 nM): 1.19e-6 and 1.38e-6
- Signal (qPCR) ([30]; JAK3, [Compound] 4.57 nM): 1.36e-6 and 1.47e-6
- Signal (qPCR) ([30]; JAK3, [Compound] 13.7 nM): 1.11e-6 and 1.19e-6
- Signal (qPCR) ([30]; JAK3, [Compound] 41.2 nM): 1.18e-6 and 1.3e-6
- Signal (qPCR) ([30]; JAK3, [Compound] 123 nM): 1.07e-6 and 1.06e-6
- Signal (qPCR) ([30]; JAK3, [Compound] 370 nM): 8.09e-7 and 7.97e-7
- Signal (qPCR) ([30]; JAK3, [Compound] 3330 nM): 1.07e-7
- Signal (qPCR) ([30]; JAK3, [Compound] 10000 nM): 2.42e-8 and 3.31e-8
- remaining activity at 10 µM (CSNK1D): 3.2%
